One assay has as its system multiple myeloma cells. Kind of assay: Antiproliferative effect of JQ1 treatment in multiple myeloma cells. The format is cell-based. The conditions noted are these: multiple myeloma cells treated with JQ1. Here is the method: (§1) To test BET bromodomain inhibitors as a strategy to downregulate the cMyc transcriptional network and the mechanism of downregulation, multiple myeloma cells were treated with JQ1.

In a further assay the test system is cMyc target genes. In words: Genome-wide expression of cMyc target genes and MYC transcription after JQ1 treatment. It counts as cell-based. Here is the method: as §1
Another assay concerns the target BRD4 (Homo sapiens, UniProt O60885). The conditions noted are these: MM.1S cells, 500 nM, 24 hours.
The subject of the next assay is cMyc. In words: cMyc protein levels after JQ1 treatment of multiple myeloma cells. The format is cell-based. The conditions noted are these: multiple myeloma cells treated with JQ1. Here is the method:
as §1

Description for BRD4: Approximately 1×10^8 MM1S cells were treated with 500 nM JQ1 or DMSO for 24 hours and crosslinked with 1.1% formaldehyde (10× crosslink solution contains 11% formaldehyde, 50 mM Hepes pH7.3, 100 mM NaCl, 1 mM EDTA p118.0, 0.5 mM EGTA pH8.0) to the growth media followed by two washes with PBS. Cells were scraped and frozen in liquid nitrogen. Brd4 ChIP-PCR analysis was done on these cells following the protocol in Rahl et al. Cell 2010. In brief, 75 ul of Dynal magnetic beads (Sigma) were blocked with 0.5% BSA (w/v) in PBS. Magnetic beads were bound with 6.25 ug of Brd4 antibody (Bethyl Labs, A310-985A, lot A301-985A-1, FIG. 1A or Sigma, HPA015055-100, lot A31530, FIG. 1B). […]
Brd4 ChIP and input DNA were analyzed using SYBR Green real-time PCR analysis (Applied Biosystems). […] Fold enrichment was determined from triplicate PCR reactions at five potential enhancer regions adjacent to the MYC gene in non-translocated cells (MYC_E1, MYC_E2, MYC_E3, MYC_E4, MYC_E5), the MYC transcriptional start site (MYC_TS1, MYC_TS2), IGH enhancer regions (IGH_E1, IGH_E2, IGH_E3, IGH_E4), and two negative regions upstream of the MYC enhancers (MYC_NR2, MYC_NR3) over input DNA using DDCt over the negative region MYC_NR1.

With `Cc1sc2c(c1C)C(c1ccc(Cl)cc1)=N[C@@H](CC(=O)OC(C)(C)C)c1nnc(C)n1-2` [JQ1, [(S)-4-(4-Chloro-phenyl)-2,3,9-trimethyl-6H-1-thia-5,7,8,9a-tetraaza-cyclopenta[e]azulen-6-yl]-acetic acid tert-butyl ester], the antiproliferative effect result in the assay on multiple myeloma cells is recorded as “potent antiproliferative effect”. For the same molecule, the MYC transcription entry in the assay on cMyc target genes (multiple myeloma cells treated with JQ1) is “early and sustained JQ1-induced suppression of MYC transcription”. Further, the “expression of cMyc target genes” value in the assay on cMyc target genes (multiple myeloma cells treated with JQ1, genome-wide) is on record as “genome-wide downregulation of cMyc target genes”. In addition, the “BRD4 binding to IgH enhancers and the TSS (ChIP)” value at BRD4 is “significantly depleted BRD4 binding to IgH enhancers and the TSS”. Besides, in the assay with cMyc, the cMyc protein levels result was “rapid downregulation of cMyc protein levels”.
